Like-named read-outs stand apart in the source and are kept apart here.
Legend:
JAK2 = JAK2 (Homo sapiens (Human), UniProt O60674); assay: JAK2 activity inhibition assay (radioactive kinase assay / Caliper assay); type: biochemical
How it was run: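 Mobility-shift (Caliper) read-out of phosphorylated peptide substrate. Compound diluted in 25 mM HEPES pH 7.5, 0.01% Brij-35, 0.01% Triton, 0.5 mM EGTA; enzyme added, then peptide plus ATP in 10 mM MgCl2. Incubated 25 min at 28° C, stopped with EDTA buffer.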

JAK2-pSTAT5 = assay: GM-CSF induced pSTAT5 in human PBMC; type: cell-based; details: read-out: JAK2-pSTAT5 EC50
Tyk2-pSTAT4 = assay: IL-12 induced pSTAT4 in human PBMC; type: cell-based; details: read-out: Tyk2-pSTAT4 EC50
How it was run: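 PBMC (200,000 cells/well) in serum-containing medium were preincubated with compound for 1 hr at 37 C, final DMSO 0.1%. Stimulation with 1.7 ng/mL IL-12 (final) for 30 minutes. pSTAT4 and total STAT4 were measured in lysates by MSD.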

TYK2 = TYK2 (Homo sapiens (Human), UniProt P29597); assay: Tyk2 activity inhibition assay (radioactive kinase assay / Caliper assay); type: biochemical
How it was run: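 Radiometric format: TYK2 with peptide substrate (20 μM) and 33P-ATP at 10 μM in HEPES pH 7.5, 1% DMSO, 120 min at room temp, P81 paper capture. Caliper mobility-shift format: TYK2 9.75 nM, peptide 30 at 3 uM, ATP 16 uM (also 1 mM), 25 min at 28° C.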

IL-12 induced IFNγ = assay: Ex vivo mouse IL-12 induced IFNγ studies; type: in vivo, C57/BL6 mice; details: ex vivo mouse model, doses of ≤10 mg/kg
Experimental: C57/BL6 mice were given a single oral dose of either vehicle or different doses of compound at a volume of 10 mL/kg. 30 minutes to 1 hour after dosing, animals were euthanized and blood was collected via vena cava into sodium heparin blood collection tubes and inverted several times. Blood was then plated on anti-CD3 coated plates and stimulated with 2 ng/ml of mouse IL-12 in RPMI media for 24 hours at 37° C. in humidified incubator with 5% CO2. At the end of the incubation, blood was centrifuged at 260 g for 5 minutes to collect supernatant. IFNγ concentration in the supernatant was determined with mouse IFNγ MSD kit per manufacture's instruction (Meso Scale Discovery). At the time of the blood collection, plasma was collected for drug level analysis by LC-MS/MS.

IL-12/IL-18 induced IFNγ = assay: Acute mouse model for IL-12/IL-18 induced IFNγ in serum; type: in vivo, C57BL/6 mice; details: in mice, efficacious dose of 30 mg/kg SC
Experimental: C57BL/6 mice mice are dosed PO or SC with test compound at various doses or vehicle (n=9 or 10 per group) and then, 30 minutes later, injected IP with 10 ng IL-12 and 1 μg IL-18. Three hours after IL-12/IL-18 injection, mice were bled and serum isolated. Concentration of cytokines in serum were determined using CBA analysis.

[1] = GM-CSF induced pSTAT5, human PBMC
[2] = IL-12 induced pSTAT4, human PBMC

Chain of TYK2 (P29597 whole entry): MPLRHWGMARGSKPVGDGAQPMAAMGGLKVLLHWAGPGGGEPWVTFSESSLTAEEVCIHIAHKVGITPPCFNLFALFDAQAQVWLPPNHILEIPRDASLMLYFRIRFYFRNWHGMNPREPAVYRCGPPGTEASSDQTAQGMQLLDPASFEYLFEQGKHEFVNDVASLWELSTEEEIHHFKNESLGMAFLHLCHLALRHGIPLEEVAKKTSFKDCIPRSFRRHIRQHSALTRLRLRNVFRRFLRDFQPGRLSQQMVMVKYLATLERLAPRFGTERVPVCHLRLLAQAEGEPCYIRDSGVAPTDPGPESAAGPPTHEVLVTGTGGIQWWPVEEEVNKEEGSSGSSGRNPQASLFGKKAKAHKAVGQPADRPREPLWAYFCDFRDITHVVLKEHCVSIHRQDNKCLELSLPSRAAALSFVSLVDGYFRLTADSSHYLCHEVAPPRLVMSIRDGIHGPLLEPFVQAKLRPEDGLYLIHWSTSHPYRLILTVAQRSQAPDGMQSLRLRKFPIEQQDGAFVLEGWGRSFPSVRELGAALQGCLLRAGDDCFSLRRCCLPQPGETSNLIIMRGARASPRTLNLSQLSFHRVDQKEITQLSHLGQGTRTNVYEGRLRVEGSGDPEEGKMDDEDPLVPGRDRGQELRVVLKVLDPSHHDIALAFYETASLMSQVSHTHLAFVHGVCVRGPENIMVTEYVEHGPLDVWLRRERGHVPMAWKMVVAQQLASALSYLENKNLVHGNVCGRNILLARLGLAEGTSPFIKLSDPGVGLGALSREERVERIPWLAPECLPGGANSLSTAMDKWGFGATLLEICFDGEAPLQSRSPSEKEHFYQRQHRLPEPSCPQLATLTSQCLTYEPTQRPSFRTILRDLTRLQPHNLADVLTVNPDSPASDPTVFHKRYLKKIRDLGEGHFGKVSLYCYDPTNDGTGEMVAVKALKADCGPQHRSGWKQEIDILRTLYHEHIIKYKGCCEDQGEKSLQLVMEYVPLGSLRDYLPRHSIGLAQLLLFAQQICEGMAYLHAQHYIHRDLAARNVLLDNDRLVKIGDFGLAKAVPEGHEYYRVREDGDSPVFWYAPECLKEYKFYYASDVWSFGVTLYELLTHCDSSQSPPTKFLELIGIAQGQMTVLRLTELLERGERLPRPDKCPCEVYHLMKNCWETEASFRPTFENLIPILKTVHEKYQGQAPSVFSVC
Chain of JAK2 (O60674 whole entry): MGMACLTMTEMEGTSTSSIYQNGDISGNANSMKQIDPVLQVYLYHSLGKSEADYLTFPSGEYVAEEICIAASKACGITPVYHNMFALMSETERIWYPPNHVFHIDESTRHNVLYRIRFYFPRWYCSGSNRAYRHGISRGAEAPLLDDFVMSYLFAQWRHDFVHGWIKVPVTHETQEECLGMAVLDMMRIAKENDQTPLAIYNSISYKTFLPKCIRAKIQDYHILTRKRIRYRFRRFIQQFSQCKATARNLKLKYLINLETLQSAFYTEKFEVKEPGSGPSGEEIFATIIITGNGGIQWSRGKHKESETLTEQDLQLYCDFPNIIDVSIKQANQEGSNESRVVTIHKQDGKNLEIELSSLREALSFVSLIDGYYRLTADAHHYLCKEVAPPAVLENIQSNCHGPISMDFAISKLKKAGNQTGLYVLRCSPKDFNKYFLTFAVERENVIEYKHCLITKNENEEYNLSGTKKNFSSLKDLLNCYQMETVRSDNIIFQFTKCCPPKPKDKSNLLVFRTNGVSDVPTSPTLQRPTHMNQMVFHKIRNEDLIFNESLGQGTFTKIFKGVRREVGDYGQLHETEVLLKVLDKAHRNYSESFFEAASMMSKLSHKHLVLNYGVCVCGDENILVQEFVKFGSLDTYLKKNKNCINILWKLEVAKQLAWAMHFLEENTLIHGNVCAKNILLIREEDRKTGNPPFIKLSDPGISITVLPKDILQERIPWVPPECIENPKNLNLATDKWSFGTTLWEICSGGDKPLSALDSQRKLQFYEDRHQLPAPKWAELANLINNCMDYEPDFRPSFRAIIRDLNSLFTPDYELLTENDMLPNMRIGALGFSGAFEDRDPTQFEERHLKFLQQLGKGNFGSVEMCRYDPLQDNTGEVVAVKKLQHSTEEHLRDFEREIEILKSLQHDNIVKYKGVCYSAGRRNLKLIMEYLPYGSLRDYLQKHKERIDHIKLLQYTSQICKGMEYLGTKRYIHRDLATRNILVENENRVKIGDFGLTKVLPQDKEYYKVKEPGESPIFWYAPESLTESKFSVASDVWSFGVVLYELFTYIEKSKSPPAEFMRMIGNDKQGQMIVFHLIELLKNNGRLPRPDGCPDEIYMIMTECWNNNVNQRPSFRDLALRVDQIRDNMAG

Row | Ki (JAK2; read-out: JAK2 Ki) [nM] | EC50 (JAK2-pSTAT5; [1]) [nM] | EC50 (Tyk2-pSTAT4; [2]) [nM] | Ki (TYK2) [nM] | SMILES | IL-12 induced IFNγ production (IL-12 induced IFNγ) | EC50 (JAK2-pSTAT5; Homo sapiens, PBMC) [nM] | EC50 (Tyk2-pSTAT4; Homo sapiens, PBMC) [nM] | IL-12/IL-18 induced IFNγ production in vivo (IL-12/IL-18 induced IFNγ) | Ki (JAK2) [nM]
1 | 10 to 100 | 2000 to 20000 | < 2000 | < 10 | CC(C)(C)NC(=O)c1ccc(Nc2cc(-c3c(F)cccc3F)nc3c2C(=O)NC3)nc1 [Compound I-165, N-(tert-butyl)-6-((2-(2,6-difluorophenyl)-5-oxo-6,7-dihydro-5H-pyrrolo[3,4-b]pyridin-4-yl)amino)nicotinamide] | significantly inhibit |  |  |  | 
2 | 100 to 1000 | > 20000 | < 2000 | < 10 | O=C1NCc2nc(-c3c(F)cccc3F)nc(Nc3ccc([C@H]4CCCNC4=O)cc3)c21 [Compound I-154, (R)-2-(2,6-difluorophenyl)-4-((4-(2-oxopiperidin-3-yl)phenyl)amino)-6,7-dihydro-5H-pyrrolo[3,4-d]pyrimidin-5-one] |  |  |  |  | 
3 | 10 to 100 | > 20000 | < 2000 | < 10 | O=C1NCc2nc(-c3c(F)cccc3F)nc(Nc3ccc([C@@H]4CCNC4=O)cc3)c21 [Compound I-87, (S)-2-(2,6-difluorophenyl)-4-((4-(2-oxopyrrolidin-3-yl)phenyl)amino)-6,7-dihydro-5H-pyrrolo[3,4-d]pyrimidin-5-] |  |  |  |  | 
4 | 100 to 1000 | > 20000 | < 2000 | < 10 | C[C@H]1COCCN1C(=O)Cc1ccc(Nc2nc(-c3c(F)cccc3F)nc3c2C(=O)NC3)cc1 [Compound I-64, (S)-2-(2,6-difluorophenyl)-4-((4-(2-(3-methylmorpholino)-2-oxoethyl)phenyl)amino)-6,7-dihydro-5H-pyrrolo[3,4-d]pyrimidin-5-one] |  |  |  |  | 
5 | 10 to 100 | < 2000 | < 2000 | < 10 | O=C1NCc2nc(-c3c(F)cccc3F)cc(Nc3ccc(N4CCC(O)CC4)cn3)c21 [Compound I-147, 2-(2,6-difluorophenyl)-4-((5-(4-hydroxypiperidin-1-yl)pyridin-2-yl)amino)-6,7-dihydro-5H-pyrrolo[3,4-b]pyridin-5-one] |  |  |  |  | 
6 | 10 to 100 | > 20000 | < 2000 | < 10 | O=C1NCc2nc(-c3c(F)cccc3F)nc(Nc3ccc([C@H]4CCNC4=O)cc3)c21 [Compound I-86, (R)-2-(2,6-difluorophenyl)-4-((4-(2-oxopyrrolidin-3-yl)phenyl)amino)-6,7-dihydro-5H-pyrrolo[3,4-d]pyrimidin-5-one] |  |  |  |  | 
7 | 10 to 100 | 2000 to 20000 | < 2000 | < 10 | CN1CCC(C)(c2ccc(Nc3nc(-c4c(F)cccc4F)nc4c3C(=O)NC4)cc2)C1=O (centres unmarked) [Compound I-150, 2-(2,6-difluorophenyl)-4-((4-(1,3-dimethyl-2-oxopyrrolidin-3-yl)phenyl)amino)-6,7-dihydro-5H-pyrrolo[3,4-d]pyrimidin-5-one] |  |  |  |  | 
8 | 10 to 100 | 2000 to 20000 | < 2000 | < 10 | O=C1NCc2nc(-c3c(F)cccc3F)cc(Nc3ccc(N4CCC(F)(F)CC4)cn3)c21 [Compound I-182, 2-(2,6-difluorophenyl)-4-((5-(4,4-difluoropiperidin-1-yl)pyridin-2-yl)amino)-6,7-dihydro-5H-pyrrolo[3,4-b]pyridin-5-one] |  |  |  |  | 
9 | 100 to 1000 | > 20000 | < 2000 | < 10 | O=C1NCc2nc(-c3c(F)cccc3F)nc(Nc3ccc(CC(=O)N4CCOCC4)cc3)c21 [Compound I-66, 2-(2,6-difluorophenyl)-4-((4-(2-morpholino-2-oxoethyl)phenyl)amino)-6,7-dihydro-5H-pyrrolo[3,4-d]pyrimidin-5-one] |  |  |  |  | 
10 | < 10 | < 2000 | < 2000 | < 10 | CC(C)(C)N1CCN(c2ccc(Nc3cc(-c4c(F)cccc4F)nc4c3C(=O)NC4)nc2)CC1 [Compound I-227, 4-((5-(4-(tert-butyl)piperazin-1-yl)pyridin-2-yl)amino)-2-(2,6-difluorophenyl)-6,7-dihydro-5H-pyrrolo[3,4-b]pyridin-5-one] |  |  |  |  | 

Row | SMILES | Ki (JAK2; read-out: JAK2 Ki) [nM] | EC50 (JAK2-pSTAT5; [1]) [nM] | EC50 (Tyk2-pSTAT4; [2]) [nM] | Ki (TYK2) [nM] | IL-12 induced IFNγ production (IL-12 induced IFNγ) | EC50 (JAK2-pSTAT5; Homo sapiens, PBMC) [nM] | EC50 (Tyk2-pSTAT4; Homo sapiens, PBMC) [nM] | IL-12/IL-18 induced IFNγ production in vivo (IL-12/IL-18 induced IFNγ) | Ki (JAK2) [nM]
11 | CCNC(=O)Cc1ccc(Nc2nc(-c3c(F)cccc3F)nc3c2C(=O)NC3)cc1 [Compound I-80, 2-(4-((2-(2,6-difluorophenyl)-5-oxo-6,7-dihydro-5H-pyrrolo[3,4-d]pyrimidin-4-yl)amino)phenyl)-N-ethylacetamide] | 100 to 1000 |  |  | < 10 |  | > 20000 | < 2000 | inhibited | 
12 | CCNC(=O)Cc1ccc(Nc2nc(-c3ccccc3Cl)nc3c2C(=O)NC3)cc1 [Compound I-20, 2-(4-((2-(2-chlorophenyl)-5-oxo-6,7-dihydro-5H-pyrrolo[3,4-d]pyrimidin-4-yl)amino)phenyl)-N-ethylacetamide] | 100 to 1000 |  | < 2000 | 10 to 100 |  | > 20000 |  |  | 
13 | CN1CCN(C(=O)Cc2ccc(Nc3nc(-c4c(F)cccc4F)nc4c3C(=O)NC4)cc2)CC1 [Compound I-67, 2-(2,6-difluorophenyl)-4-((4-(2-(4-methylpiperazin-1-yl)-2-oxoethyl)phenyl)amino)-6,7-dihydro-5H-pyrrolo[3,4-d]pyrimidin-5-one] |  | > 20000 | < 2000 | < 10 |  |  |  |  | 10 to 100
14 | CCNC(=O)c1ccc(Nc2cc(-c3c(F)cccc3F)nc3c2C(=O)NC3)nc1 [Compound I-136, 6-((2-(2,6-difluorophenyl)-5-oxo-6,7-dihydro-5H-pyrrolo[3,4-b]pyridin-4-yl)amino)-N-ethylnicotinamide] | 10 to 100 |  |  | < 10 | significantly inhibit | < 2000 | < 2000 |  | 
